This note sets out measurements from patent US10647699B2, “Substituted 2-oxyimidazolylcarboxamides as pesticides” (Bayer CropScience Aktiengesellschaft, priority 2016, dated 2020).

Data set [1] can be described thus: log P by HPLC on reversed-phase columns (OECD Guideline 117), neutral range. The conditions noted are these: for chromatographic logP: reversed-phase (C18) HPLC column, read-out: LogP-neutral. Format: physicochemical.
Data set [2] relates to Myzus persicae. Description: Myzus persicae spray test on bell pepper plants. The following applies: after 6 days, application rate 20 ppm. In kind it is in vivo. On the procedure: Myzus persicae-Spray Test
(§1) Solvent: 14 parts by weight of dimethylformamide
(§2) Emulsifier: alkylaryl polyglycol ether
(§3) To produce a suitable preparation of active compound, 1 part by weight of active compound is dissolved using the specified parts by weight of solvent and made up with water containing an emulsifier concentration of 1000 ppm until the desired concentration is attained. To produce further test concentrations, the formulation is diluted with emulsifier-containing water. If the addition of ammonium salts or/and penetrants is required, these are each added in a concentration of 1000 ppm to the formulation solution.
Bell pepper plants (Capsicum annuum) severely infested with the green peach aphid (Myzus persicae) are treated by spraying with the active compound formulation in the desired concentration.
After 6 days, the kill in % is determined. 100% means that all of the aphids have been killed; 0% means that none of the aphids have been killed.

The subject of the next data set is Aphis gossypii. Briefly: Aphis gossypii spray test on cotton plants. Format: in vivo. The following applies: after 6 days, application rate 20 ppm, cotton plants; for pest or weed control at 20 ppm: Aphis gossypii, 144 h, read-out: efficacy (kill). On the procedure:
Aphis gossypii—Spray Test
as §1, §2, §3
Cotton plants (Gossypium hirsutum) which are heavily infested by the cotton aphid (Aphis gossypii) are sprayed with an active compound formulation of the desired concentration.
After 6 days, the kill in % is determined. 100% means that all the aphids have been killed; 0% means that no aphids have been killed.

In data set [3] the test system is Myzus persicae. Briefly: Myzus persicae oral test (MYZUPE O). In kind it is in vivo. The conditions noted are these: for Emax at 0.8 ppm / Emax at 4 ppm / pest or weed control at 20 ppm: Myzus persicae, po, 120 h; for Emax at 0.8 ppm / Emax at 4 ppm: MYZUPE O, 5 dat, read-out: % efficacy; for pest or weed control at 20 ppm / efficacy: after 5 days, application rate 20 ppm; for pest or weed control at 20 ppm: read-out: efficacy.

A further data set relates to Boophilus microplus. Description: Boophilus microplus injection test. Format: in vivo. The following applies: 20 μg/animal, assessed after 7 days. On the procedure: Boophilus microplus—Injection Test Solvent: dimethyl sulphoxide To produce a suitable preparation of active compound, 10 mg of active compound are mixed with 0.5 ml of solvent and the concentrate is diluted with solvent to the desired concentration. […] The animals are transferred into dishes and kept in a climate-controlled room. Efficacy is assessed after 7 days by laying of fertile eggs. Eggs which are not visibly fertile are stored in a climate-controlled cabinet until the larvae hatch after about 42 days.

Data set [4] deals with Myzus persicae. Description: Myzus persicae spray test (MYZUPE), Chinese cabbage leaf discs. The following applies: for Emax at 100 g/ha / pest or weed control at 500 g/ha: Myzus persicae, foliar, 144 h; for Emax at 100 g/ha: MYZUPE, 100 g of ai/ha, 6 dat, read-out: % efficacy; for pest or weed control at 500 g/ha: after 6 days, read-out: efficacy; for pest or weed control at 500 g/ha / efficacy: application rate 500 g/ha; for efficacy: after 5 days. In kind it is in vivo.

A further data set relates to Tetranychus urticae. Briefly: Tetranychus urticae spray test, OP-resistant, bean leaf discs. In kind it is in vivo. The following applies: after 6 days, application rate 500 g/ha. On the procedure:
Tetranychus urticae—Spray Test, OP-Resistant
To produce a suitable preparation of active compound, 1 part by weight of active compound is dissolved using the specified parts by weight of solvent and made up with water containing an emulsifier concentration of 1000 ppm until the desired concentration is attained. To produce further test concentrations, the formulation is diluted with emulsifier-containing water.
Discs of bean leaves (Phaseolus vulgaris) infested with all stages of the greenhouse red spider mite (Tetranychus urticae) are sprayed with an active compound formulation of the desired concentration.
After 6 days, the efficacy in % is determined. 100% means that all the spider mites have been killed; 0% means that no spider mites have been killed.

As for `CC(C)Oc1ncc(C(=O)N(C)c2cccnc2)n1C` [Example II-1], in data set [1] (HPLC, neutral range pH 7.8), the chromatographic logP worked out at 1.47. Further, in the data set on Myzus persicae [2], the “efficacy (kill)” value is on record as 100%. The pest or weed control at 20 ppm with Aphis gossypii worked out at 100%. In the data set on Myzus persicae [3], the Emax at 0.8 ppm stood at 90%, the Emax at 4 ppm came out at 100% and the pest or weed control at 20 ppm stood at 100%. Besides, the “efficacy (no fertile eggs laid)” value in the data set with Boophilus microplus was determined as 100%.

Regarding `CN(C(=O)c1cnc(Oc2cc(F)ccc2F)n1C)c1cccnc1` [Example II-14], the chromatographic logP in data set [1] (HPLC, neutral range pH 7.8) was found to be 1.87. In the data set with Myzus persicae [4], the Emax at 100 g/ha came to 90% and the pest or weed control at 500 g/ha is 100%. For the same molecule, in the data set with Tetranychus urticae, the efficacy amounted to 90%. The pest or weed control at 20 ppm in the data set with Aphis gossypii amounted to 99%. Also, in the data set with Myzus persicae [3], the Emax at 0.8 ppm came to 90% and the pest or weed control at 20 ppm was determined as 100%.

In data set [1] (HPLC, neutral range pH 7.8), `CN(C(=O)c1cnc(Oc2ccc(F)cc2)n1C)c1cccnc1` [Example II-19] came in with a LogP-neutral of 1.76. In addition, the “efficacy (kill)” value in the data set on Myzus persicae [2] was 95%; with Aphis gossypii it was 100%. In the data set with Myzus persicae [3], this molecule yielded an efficacy of 100%.

With `CN(C(=O)c1cnc(OCCC(F)(F)F)n1C)c1cccnc1` [Example II-23], in the data set with Myzus persicae [4], the Emax at 100 g/ha turned out to be 90% and the pest or weed control at 500 g/ha is 90%. The molecule also returned an efficacy with Tetranychus urticae of 100%. Further, in the data set with Aphis gossypii, the pest or weed control at 20 ppm worked out at 95%. In the data set with Myzus persicae [3], the Emax at 0.8 ppm stood at 100%, the Emax at 4 ppm was 100% and the pest or weed control at 20 ppm worked out at 100%.

Molecule `C=CCOc1ncc(C(=O)N(C)c2cccnc2)n1C` [Example II-37] had a LogP-neutral in data set [1] (pH 7.8) of 1.38. Besides, the efficacy in the data set with Myzus persicae [4] is listed as 100%; in the data set on Tetranychus urticae, 90%; in the data set with Myzus persicae [3], 100%. Also, in the data set on Aphis gossypii, the “efficacy (kill)” value is on record as 100%.

In data set [1] (HPLC, neutral range pH 7.8), `CN(C(=O)c1cnc(Oc2ccc(F)nc2)n1C)c1cccnc1` [Example II-40] registered a LogP-neutral of 1.33. For the same molecule, the efficacy in the data set on Myzus persicae [4] and in the data set with Myzus persicae [3] was 100% throughout. In addition, in the data set with Aphis gossypii, the “efficacy (kill)” value is on record as 100%. Besides, the “efficacy (no fertile eggs laid)” value with Boophilus microplus is reported as 80%.

On to `CN(C(=O)c1cnc(Oc2ccc(Oc3ccc(Cl)nc3)nc2)n1C)c1cccnc1` [Example II-45], for which the “efficacy (kill)” value came out at 98% with Myzus persicae [2] and 99% with Aphis gossypii. Besides, the efficacy in the data set with Myzus persicae [3] stood at 100%.

On to `CN(C(=O)c1cnc(Oc2ccc(F)c(Cl)c2)n1C)c1cccnc1` [Example II-89], for which, in data set [1] (HPLC, neutral range pH 7.8), the LogP-neutral is recorded as 2.17. For the same molecule, the efficacy with Myzus persicae [4], in the data set with Tetranychus urticae and with Myzus persicae [3] was 100% throughout.
